Experimental data reported in US11413283B2, “Topical formulations for delivery of hedgehog inhibitor compounds and use thereof” (PellePharm, Inc., priority 2015, dated 2022).
Where two headings read alike, the source gives them in different places.

Assays:
[1] = test system: Hedgehog (Hh) signaling pathway; details: Kim and Beachy, Cancer Cell, 17, 388-399, 2010; read-out: IC50 value for itraconazole (half maximal inhibitory concentration); cited from earlier work
[2] = Saturated solubility of itraconazole in solvents and solvent systems; assay type: physicochemical
[3] = Toxicokinetics of patidegib and metabolite IPI-230 in plasma after twice daily dermal application for 13 weeks; assay type: in vivo, Gottingen Minipig; details: for Cmax / AUC(0-t) / Tmax: Gottingen, minipig, plasma, topical or ocular; for Cmax / AUC(0-t): Gottingen Minipig plasma; for AUC(0-t): read-out: Mean Patidegib AUC0-24; for Tmax: dermal, minipig plasma, read-out: Individual Tmax
Procedure: A study was conducted to evaluate the toxicokinetics of patidegib when administered twice daily via dermal application for 13 weeks. As described in Example 11, the formulation identified herein as SS14 was prepared, with patidegib concentrations of 2% and 4%. The formulations, along with a placebo, were applied topically to Gottingen Minipigs® twice daily, and blood samples were collected on study days 1, 14 and 90 for analysis of patidegib and its metabolite, IPI-230.
A study was conducted to determine the toxicokinetics of patidegib and its metabolite, IPI-230, when patidegib was administered twice daily (approximately 8 hours apart) to Gottingen Minipigs® via dermal application for 13 weeks.
The formulation identified herein as SS14 was prepared, with 2% patidegib and with 4% patidegib. A placebo formulation was also prepared that was identical in all respects to SS14 except for the absence of the patidegib. The formulation was applied topically to the animals at patidegib dose levels of 0 mg/kg/day (untreated), 0 mg/kg/day (placebo), 40 mg/kg/day, and 80 mg/kg/day to Groups 1, 2, 3, and 4, respectively. Groups 1 and 3 consisted of four animals/sex/group and Groups 2 and 4 consisted of six animals/sex/group. Doses were administered twice daily (approximately 8 hours apart). Blood samples were collected from all animals, survival permitting, on Days 1, 14 (Group 4 only), and 90 predose and at approximately 2, 4, 6, 8 (just prior to the second daily dose), 10, 12, 14, 16, and 24 hours following the first daily dose. Plasma samples were assayed for patidegib and IPI-230. Only the 2-hour samples from the untreated and placebo groups were analyzed.
Noncompartmental analysis was applied to the individual plasma patidegib and IPI-230 concentration data for males and females. The following parameters were estimated: Cmax—Maximum observed concentration; Tmax—Time of maximum observed concentration; AUCTlast—Area under the concentration-time curve from hour 0 to the last measurable concentration, estimated by the linear trapezoidal rule; AUC0-24—Area under the concentration-time curve from hour 0 to hour 24, estimated by the linear trapezoidal rule; DN AUC0-24—Dose normalized AUC0-24, calculated as AUC0-24/dose level; DN Cmax—Dose normalized Cmax, calculated as Cmax/dose level.

[4] = test system: cellular hedgehog pathway; details: Tremblay et al., J. Med. Chem. 2009; read-out: half maximal effective concentration for inhibition of cellular hedgehog pathway; cited from earlier work
[5] = minimum of 24 hours stirring at 25° C.
[6] = both sexes, 40 mg/kg/day, Day 90, Group 3, 40 mg/kg/day dermal twice daily, sexes combined MF
[7] = both sexes, 80 mg/kg/day, Day 1, Group 4, 80 mg/kg/day dermal twice daily, sexes combined MF
[8] = both sexes, 80 mg/kg/day, Day 14, Group 4, 80 mg/kg/day dermal twice daily, sexes combined MF
[9] = both sexes, 80 mg/kg/day, Day 90, Group 4, 80 mg/kg/day dermal twice daily, sexes combined MF
[10] = female, 40 mg/kg/day, Day 1, Group 3, 40 mg/kg/day dermal twice daily, sex F
[11] = female, 40 mg/kg/day, Day 90, Group 3, 40 mg/kg/day dermal twice daily, sex F
[12] = female, 80 mg/kg/day, Day 1, Group 4, 80 mg/kg/day dermal twice daily, sex F
[13] = female, 80 mg/kg/day, Day 14, Group 4, 80 mg/kg/day dermal twice daily, sex F
[14] = female, 80 mg/kg/day, Day 90, Group 4, 80 mg/kg/day dermal twice daily, sex F
[15] = male, 40 mg/kg/day, Day 90, Group 3, 40 mg/kg/day dermal twice daily, sex M
[16] = male, 80 mg/kg/day, Day 1, Group 4, 80 mg/kg/day dermal twice daily, sex M
[17] = male, 80 mg/kg/day, Day 14, Group 4, 80 mg/kg/day dermal twice daily, sex M
[18] = male, 80 mg/kg/day, Day 90, Group 4, 80 mg/kg/day dermal twice daily, sex M

## CCC(C)n1ncn(-c2ccc(N3CCN(c4ccc(OCC5COC(Cn6cncn6)(c6ccc(Cl)cc6Cl)O5)cc4)CC3)cc2)c1=O [itraconazole, (2R,4S)-rel-1-(butan-2-yl)-4-{4-[4-(4-(4-{[(2R,4S)-2-(2,4-dichlorophenyl)-2-(1H-1,2,4-triazol-1-ylmethyl)-1,3-dioxolan-4-yl]methoxy}phenyl)piperazin-1-yl]phenyl}-4,5-dihydro-1H-1,2,4-triazol-5-one]
[1]
  IC50: 800 nM
[2]
  solubility of itraconazole in water: highly insoluble
[2]; [5]
  saturated solubility of itraconazole in N-methyl pyrrolidone: 7.65 % w/w
  solubility of itraconazole in benzyl alcohol: 14.97 % w/w
  solubility of itraconazole in castor oil: 0.01-0.05 % w/w
  solubility of itraconazole in diisopropyl adipate: 0.01-0.05 % w/w
  solubility of itraconazole in dimethicone 350 CST: 0.01-0.05 % w/w
  solubility of itraconazole in dimethyl isosorbide: 2.32 % w/w
  solubility of itraconazole in ethanol: 0.01-0.05 % w/w
  solubility of itraconazole in phenoxyethanol: 7.87 % w/w
  solubility of itraconazole in the remaining solvents investigated (not shown): 0.01-0.20 % w/w

## CC1=C2C[C@H]3[C@@H](CC[C@@H]4C[C@H](NS(C)(=O)=O)CC[C@@]43C)[C@@H]2CC[C@@]2(C1)O[C@@H]1C[C@H](C)CN[C@H]1[C@H]2C [patidegib]
[3]; 40 to 80 mg/kg/day, Day 90
  dose proportionality of increases in mean Cmax and AUC0-24: generally greater than dose proportional
[3]; [6]
  Cmax: 21.9 ng/mL
  AUC(0-t): 329 ng·h/mL
[3]; [7]
  Cmax: 3.93 ng/mL
  AUC(0-t): 37.1 ng·h/mL
[3]; [8]
  Cmax: 249 ng/mL
  AUC(0-t): 4110 ng·h/mL
[3]; [9]
  Cmax: 75.8 ng/mL
  AUC(0-t): 1240 ng·h/mL
[3]; both sexes, post the first or second dose on Day 1
  Tmax: 2 to 8 h
[3]; both sexes, post the first or second dose on Days 14 and 90
  Tmax: 2 to 6 h
[3]; [10]
  Cmax: 4.65 ng/mL
  AUC(0-t): 56.7 ng·h/mL
[3]; [11]
  Cmax: 35 ng/mL
  AUC(0-t): 526 ng·h/mL
[3]; [12]
  Cmax: 4.03 ng/mL
  AUC(0-t): 36.3 ng·h/mL
[3]; [13]
  Cmax: 410 ng/mL
  AUC(0-t): 6820 ng·h/mL
[3]; [14]
  Cmax: 141 ng/mL
  AUC(0-t): 2310 ng·h/mL
[3]; [15]
  Cmax: 8.68 ng/mL
  AUC(0-t): 132 ng·h/mL
[3]; [16]
  Cmax: 3.84 ng/mL
  AUC(0-t): 37.7 ng·h/mL
[3]; [17]
  Cmax: 88.7 ng/mL
  AUC(0-t): 1390 ng·h/mL
[3]; [18]
  Cmax: 21.4 ng/mL
  AUC(0-t): 352 ng·h/mL
[4]
  EC50: 7 nM
